Assay results from ChEMBL document CHEMBL4837189, “Opportunities and Limitations for Assigning Relative Configurations of Antibacterial Bislactones using GIAO NMR Shift Calculations” (J Nat Prod, 2021).
≈ marks a conversion by molar mass, not a printed value.

Experiments:
Bacillus anthracis = test: Antimicrobial activity against Bacillus anthracis assessed as microbial growth inhibition by CLSI-protocol based broth microdilution assay; assay type: functional
Staphylococcus aureus [1] = test: Antimicrobial activity against methicillin-resistant Staphylococcus aureus assessed as microbial growth inhibition by CLSI-protocol based broth microdilution assay; assay type: functional
Escherichia coli = test: Antimicrobial activity against Escherichia coli assessed as microbial growth inhibition by CLSI-protocol based broth microdilution assay; assay type: functional
Pseudomonas aeruginosa = test: Antimicrobial activity against Pseudomonas aeruginosa assessed as microbial growth inhibition by CLSI-protocol based broth microdilution assay; assay type: functional
Staphylococcus aureus [2] = test: Antimicrobial activity against Staphylococcus aureus assessed as microbial growth inhibition by CLSI-protocol based broth microdilution assay; assay type: functional
MDA-MB-231 = test: Cytotoxicty against human MDA-MB-231 cells assessed as reduction in cell viability at > 25 uM measured after 72 hrs by CellTiter-Blue cell viability assay; assay type: cell-based; settings: mda-mb-231, 72 h
MDA-MB-435 = test: Cytotoxicty against human MDA-MB-435 cells assessed as reduction in cell viability at > 25 uM measured after 72 hrs by CellTiter-Blue cell viability assay; assay type: cell-based; settings: mda-mb-435, 72 h
OVCAR-3 = test: Cytotoxicty against human OVCAR-3 cells assessed as reduction in cell viability at > 25 uM measured after 72 hrs by CellTiter-Blue cell viability assay; assay type: cell-based; settings: ovcar-3, 72 h

SMILES | MIC (Bacillus anthracis) [µg/mL] | MIC (Staphylococcus aureus [1]) [µg/mL] | MIC (Escherichia coli) [µg/mL] | MIC (Pseudomonas aeruginosa) [µg/mL] | MIC (Staphylococcus aureus [2]) [µg/mL] | Activity (MDA-MB-231) | Activity (MDA-MB-435) | Activity (OVCAR-3)
CC[C@H]1OC(=O)[C@H](C)[C@@H](O[C@H]2C[C@@](C)(OC)[C@@H](O)[C@H](C)O2)[C@H](C)[C@@H](O[C@@H]2O[C@H](C)C[C@H](N(C)C)[C@H]2O)[C@](C)(O)C[C@@H](C)C(=O)[C@H](C)[C@@H](O)[C@]1(C)O [ERYTHROMYCIN] | 0.25 (≈ 0.341 µM) | 0.25 (≈ 0.341 µM) | 16 (≈ 21.8 µM) | 62.5 (≈ 85.2 µM) | 0.5 (≈ 0.681 µM) |  |  | 
C[C@@H]1OC(=O)/C=C/[C@@H](O)CC[C@H](C)OC(=O)CC[C@@H]1O | 125 (≈ 437 µM) | 125 (≈ 437 µM) | 125 (≈ 437 µM) | 125 (≈ 437 µM) | 4 (≈ 14 µM) |  |  | 
CC(=C\C(=O)O)/C=C(\C)C[C@H](C)CCCC[C@H]1OC(=O)[C@@H]1CO [ANTIBIOTIC 1233A] | > 250 | 125 (≈ 385 µM) | > 250 | 125 (≈ 385 µM) | 125 (≈ 385 µM) |  |  | 
CC1OC(=O)/C=C/[C@@H](O)CC[C@H](C)OC(=O)CCC1=O (stereo partly drawn) | 62.5 (≈ 220 µM) | 125 (≈ 440 µM) | 125 (≈ 440 µM) | 125 (≈ 440 µM) | 1 (≈ 3.52 µM) | Non-Toxic | Non-Toxic | Non-Toxic
CN[C@@H]1[C@H](O[C@H]2[C@H](O[C@H]3[C@H](O)[C@@H](O)[C@H](N=C(N)N)[C@@H](O)[C@@H]3N=C(N)N)O[C@@H](C)[C@]2(O)C=O)O[C@@H](CO)[C@H](O)[C@H]1O [STREPTOMYCIN] | 0.25 (≈ 0.43 µM) | 0.25 (≈ 0.43 µM) | 0.25 (≈ 0.43 µM) | 1 (≈ 1.72 µM) | 0.25 (≈ 0.43 µM) |  |  | 
CO[C@H]1/C=C/O[C@@]2(C)Oc3c(C)c(O)c4c(O)c(c(/C=N/N5CCN(C)CC5)c(O)c4c3C2=O)NC(=O)/C(C)=C\C=C\[C@H](C)[C@H](O)[C@@H](C)[C@@H](O)[C@@H](C)[C@H](OC(C)=O)[C@@H]1C [RIFAMPIN] | 0.25 (≈ 0.304 µM) | 0.25 (≈ 0.304 µM) | 4 (≈ 4.86 µM) | 62.5 (≈ 75.9 µM) | 0.25 (≈ 0.304 µM) |  |  | 
CC1(C)S[C@@H]2[C@H](NC(=O)Cc3ccccc3)C(=O)N2[C@H]1C(=O)O [PENICILLIN G] | 0.25 (≈ 0.748 µM) | 0.5 (≈ 1.5 µM) | 16 (≈ 47.8 µM) | > 250 | 0.25 (≈ 0.748 µM) |  |  | 
CC[C@H]1OC(=O)[C@H](C)[C@@H](O[C@H]2C[C@@](C)(OC)[C@@H](O)[C@H](C)O2)[C@H](C)[C@@H](O[C@@H]2O[C@H](C)C[C@H](N(C)C)[C@H]2O)[C@](C)(OC)C[C@@H](C)C(=O)[C@H](C)[C@@H](O)[C@]1(C)O [CLARITHROMYCIN] | 0.25 (≈ 0.334 µM) | > 250 | 16 (≈ 21.4 µM) | 125 (≈ 167 µM) | 0.25 (≈ 0.334 µM) |  |  | 
